Measurements taken from the NIST ThermoML archive (doi:10.1016/j.jct.2019.05.002).
Numbers after ± are expanded uncertainties.

Assay: xn = mol fraction of the nth substance listed
Conditions: 100 kPa, Liquid; for speed of sound: Frequency=3 MHz, Single path-length method; for mass density: Vibrating tube method

OCCCCO [1,4-butanediol] + CCCC(=O)OCC
Conditions | mass density [kg/m3] | speed of sound [m/s]
298.15 K, x2 = 0 | 1012.8 ± 2 | 1601.9 ± 1.1
298.15 K, x2 = 0.1009 | 998.83 ± 2 | 1558.5 ± 1.1
298.15 K, x2 = 0.1986 | 985.3 ± 2 | 1516.5 ± 1.1
298.15 K, x2 = 0.3254 | 967.74 ± 2 | 1461.9 ± 1.1
298.15 K, x2 = 0.4231 | 954.2 ± 2 | 1419.9 ± 1.1
298.15 K, x2 = 0.5008 | 943.44 ± 2 | 1386.5 ± 1.1
298.15 K, x2 = 0.5895 | 931.16 ± 2 | 1348.4 ± 1
298.15 K, x2 = 0.7128 | 914.08 ± 2 | 1295.3 ± 1
298.15 K, x2 = 0.8015 | 901.8 ± 2 | 1257.2 ± 1
298.15 K, x2 = 0.9105 | 886.7 ± 2 | 1210.3 ± 1
303.15 K, x2 = 0 | 1009.77 ± 2 | 1590.3 ± 1.1
303.15 K, x2 = 0.1009 | 995.55 ± 2 | 1545.9 ± 1.1
303.15 K, x2 = 0.1986 | 981.78 ± 2 | 1503 ± 1.1
303.15 K, x2 = 0.3254 | 963.91 ± 2 | 1447.4 ± 1.1
303.15 K, x2 = 0.4231 | 950.15 ± 2 | 1404.4 ± 1.1
303.15 K, x2 = 0.5008 | 939.2 ± 2 | 1370.3 ± 1.1
303.15 K, x2 = 0.5895 | 926.7 ± 2 | 1331.4 ± 1
303.15 K, x2 = 0.7128 | 909.32 ± 2 | 1277.2 ± 1
303.15 K, x2 = 0.8015 | 896.82 ± 2 | 1238.3 ± 1
303.15 K, x2 = 0.9105 | 881.46 ± 2 | 1190.4 ± 1
308.15 K, x2 = 0 | 1006.74 ± 2 | 1578.6 ± 1.1
308.15 K, x2 = 0.1009 | 992.28 ± 2 | 1533.4 ± 1.1
308.15 K, x2 = 0.1986 | 978.27 ± 2 | 1489.5 ± 1.1
308.15 K, x2 = 0.3254 | 960.1 ± 2 | 1432.7 ± 1.1
308.15 K, x2 = 0.4231 | 946.09 ± 2 | 1388.9 ± 1.1
308.15 K, x2 = 0.5008 | 934.96 ± 2 | 1354 ± 1.1
308.15 K, x2 = 0.5895 | 922.24 ± 2 | 1314.2 ± 1
308.15 K, x2 = 0.7128 | 904.57 ± 2 | 1258.9 ± 1
308.15 K, x2 = 0.8015 | 891.85 ± 2 | 1219.2 ± 1
308.15 K, x2 = 0.9105 | 876.23 ± 2 | 1170.3 ± 1
313.15 K, x2 = 0 | 1003.7 ± 2 | 1567 ± 1.1
313.15 K, x2 = 0.1009 | 988.99 ± 2 | 1520.7 ± 1.1
313.15 K, x2 = 0.1986 | 974.75 ± 2 | 1476 ± 1.1
313.15 K, x2 = 0.3254 | 956.27 ± 2 | 1417.9 ± 1.1
313.15 K, x2 = 0.4231 | 942.03 ± 2 | 1373.2 ± 1.1
313.15 K, x2 = 0.5008 | 930.7 ± 2 | 1337.6 ± 1.1
313.15 K, x2 = 0.5895 | 917.77 ± 2 | 1297 ± 1
313.15 K, x2 = 0.7128 | 899.8 ± 2 | 1240.5 ± 1
313.15 K, x2 = 0.8015 | 886.87 ± 2 | 1199.9 ± 1
313.15 K, x2 = 0.9105 | 870.99 ± 2 | 1150 ± 1
318.15 K, x2 = 0 | 1000.67 ± 2 | 1555.3 ± 1.1
318.15 K, x2 = 0.1009 | 985.72 ± 2 | 1508.1 ± 1.1
318.15 K, x2 = 0.1986 | 971.24 ± 2 | 1462.5 ± 1.1
318.15 K, x2 = 0.3254 | 952.45 ± 2 | 1403.2 ± 1.1
318.15 K, x2 = 0.4231 | 937.98 ± 2 | 1357.6 ± 1.1
318.15 K, x2 = 0.5008 | 926.46 ± 2 | 1321.3 ± 1.1
318.15 K, x2 = 0.5895 | 913.32 ± 2 | 1279.8 ± 1
318.15 K, x2 = 0.7128 | 895.05 ± 2 | 1222.2 ± 1
318.15 K, x2 = 0.8015 | 881.9 ± 2 | 1180.7 ± 1
318.15 K, x2 = 0.9105 | 865.75 ± 2 | 1129.8 ± 1
323.15 K, x2 = 0 | 997.63 ± 2 | 1543.7 ± 1.1
323.15 K, x2 = 0.1009 | 982.43 ± 2 | 1495.6 ± 1.1
323.15 K, x2 = 0.1986 | 967.72 ± 2 | 1449 ± 1.1
323.15 K, x2 = 0.3254 | 948.62 ± 2 | 1388.6 ± 1.1
323.15 K, x2 = 0.4231 | 933.91 ± 2 | 1342 ± 1.1
323.15 K, x2 = 0.5008 | 922.21 ± 2 | 1305 ± 1.1
323.15 K, x2 = 0.5895 | 908.85 ± 2 | 1262.7 ± 1
323.15 K, x2 = 0.7128 | 890.28 ± 2 | 1204 ± 1
323.15 K, x2 = 0.8015 | 876.92 ± 2 | 1161.7 ± 1
323.15 K, x2 = 0.9105 | 860.51 ± 2 | 1109.8 ± 1
